Data set [1] has as its target C-X-C chemokine receptor type 4 (Homo sapiens, UniProt P61073). The data set is described as follows: Displacement of [125I]-SDF-1alpha from CXCR4 receptor expressed in HEK293 cells after 1 hr by scintillation counting. It counts as cell-based.
Data set [2] deals with HeLa. Nature of the data set: Cytotoxicity against human HeLa cells at 10 uM by MAGI assay. The data set is classed as cell-based.
Data set [3] concerns the target Atypical chemokine receptor 3 (Homo sapiens) (UniProt P25106). The data set is described as follows: Inhibition of CXCR7 interaction with SDF1alpha.
The test system of data set [4] is Human immunodeficiency virus 1. The data set is described as follows: Antiviral activity against Human immunodeficiency virus 1 NL4.3 infected in human HeLa cells assessed as inhibition of viral replication after 48 hrs by MAGI assay. It counts as functional, organism-based. The following applies: Human immunodeficiency virus 1, NL4.3, HeLa.
Data set [5] deals with Human immunodeficiency virus 1. Nature of the data set: Antiviral activity against Human immunodeficiency virus 1 3B infected in human HeLa cells assessed as inhibition of viral replication after 48 hrs by MAGI assay. The data set is classed as functional, organism-based.
Data set [6] deals with Human immunodeficiency virus 1. The data set is described as follows: Antiviral activity against CCR5-tropic Human immunodeficiency virus 1 Ba-L infected in human HeLa cells assessed as inhibition of viral replication at 10 uM after 48 hrs by MAGI assay. It counts as functional, organism-based.

Each structure is given as a SMILES string. The source made the active and inactive calls. No cut-off for these calls is given here.

C-X-C chemokine receptor type 4, sequence (P61073 whole entry): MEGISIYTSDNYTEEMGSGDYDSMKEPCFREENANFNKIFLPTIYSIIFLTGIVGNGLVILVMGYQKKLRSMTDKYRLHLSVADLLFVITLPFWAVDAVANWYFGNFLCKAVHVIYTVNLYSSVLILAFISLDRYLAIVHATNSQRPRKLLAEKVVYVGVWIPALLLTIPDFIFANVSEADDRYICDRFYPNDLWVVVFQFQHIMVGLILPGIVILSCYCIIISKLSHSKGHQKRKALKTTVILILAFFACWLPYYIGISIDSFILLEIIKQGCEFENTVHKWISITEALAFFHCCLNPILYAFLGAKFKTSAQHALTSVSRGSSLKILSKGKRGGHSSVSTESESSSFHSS
Atypical chemokine receptor 3 (Homo sapiens), sequence (P25106 whole entry): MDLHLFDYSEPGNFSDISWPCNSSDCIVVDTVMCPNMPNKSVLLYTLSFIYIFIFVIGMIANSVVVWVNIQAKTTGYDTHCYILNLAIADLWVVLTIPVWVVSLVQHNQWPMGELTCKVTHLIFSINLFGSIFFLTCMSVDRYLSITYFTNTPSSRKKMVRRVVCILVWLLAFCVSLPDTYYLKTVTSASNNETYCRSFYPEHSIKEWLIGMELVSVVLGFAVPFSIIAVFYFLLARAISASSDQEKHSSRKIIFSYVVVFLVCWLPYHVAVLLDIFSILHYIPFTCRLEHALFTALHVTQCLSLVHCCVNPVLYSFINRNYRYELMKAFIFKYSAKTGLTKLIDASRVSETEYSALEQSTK

In turn, `NC(N)=NCCC[C@@H]1NC(=O)[C@@H](Cc2ccc(O)cc2)NC(=O)CNC(=O)[C@H](Cc2ccc3ccccc3c2)N=C(N)[C@H](CCCN=C(N)N)NC1=O` came in with an IC50 in data set [1] of 11 nM. Further, in data set [2], the Activity entry is “Non-toxic”.

For the compound `N=C(N)NCCC[C@@H]1NC(=O)[C@H](CCCNC(=N)N)NC(=O)[C@@H](Cc2ccc(O)cc2)NC(=O)CNC(=N)[C@H](Cc2ccc3ccccc3c2)NC1=O`, the concentration for half-maximal inhibition (IC50) in data set [1] amounted to 4.2 nM. The inhibition entry in data set [3] is “inactive”. In addition, the EC50 was 1.4 nM in data set [4] and 1 nM in data set [5]. Besides, the result in data set [6] was inactive. Further, the Activity entry in data set [2] is listed as “Non-toxic”.

Regarding `CN1C(=O)[C@@H](Cc2ccc(O)cc2)NC(=O)CNC(=O)[C@H](Cc2ccc3ccccc3c2)NC(=O)[C@H](CCCN=C(N)N)NC(=O)[C@H]1CCCN=C(N)N`, the IC50 in data set [1] turned out to be 37 nM.

`NC(N)=NCCC[C@@H]1N=C(N)[C@H](CCCN=C(N)N)NC(=O)[C@@H](Cc2ccc(O)cc2)NC(=O)CNC(=O)[C@H](Cc2ccc3ccccc3c2)NC1=O` gave a half-inhibitory concentration (IC50) in data set [1] of 16 nM. Further, in data set [2], the Activity result was “Non-toxic”.

Compound `NC(N)=NCCC[C@@H]1N=C(N)[C@H](Cc2ccc(O)cc2)NC(=O)CNC(=O)[C@H](Cc2ccc3ccccc3c2)NC(=O)[C@H](CCCN=C(N)N)NC1=O` showed an IC50 in data set [1] of 334 nM. Further, the Activity entry in data set [2] was “Non-toxic”.

Consider `NC(N)=NCCC[C@@H]1N=C(N)[C@@H](Cc2ccc(O)cc2)NC(=O)CNC(=O)[C@H](Cc2ccc3ccccc3c2)NC(=O)[C@H](CCCN=C(N)N)NC1=O`, for which the IC50 in data set [1] worked out at 679 nM. Besides, the Activity entry in data set [2] was “Non-toxic”.

On to `N=C(N)NCCC[C@@H]1NC(=O)[C@H](CCCNC(=N)N)NC(=O)[C@@H](Cc2ccc(O)cc2)NC(=O)CNC(=O)[C@H](Cc2ccc3ccccc3c2)NC1=O`, for which the EC50 in data set [4] and in data set [5] was 21 nM each time. For the same compound, in data set [6], the result was inactive.

Take `N=C(N)NCCC[C@@H]1NC(=N)[C@H](Cc2ccc(O)cc2)NC(=O)CNC(=O)[C@H](Cc2ccc3ccccc3c2)NC(=O)[C@H](CCCNC(=N)N)NC1=O`: the inhibition entry in data set [3] was “inactive”. The concentration for a half-maximal effect (EC50) in data set [4] amounted to 248 nM; in data set [5], 238 nM. In addition, the result in data set [6] was inactive.

For the compound `N=C(N)NCCC[C@@H]1NC(=O)[C@H](CCCNC(=N)N)NC(=O)[C@@H](Cc2ccc(O)cc2)NC(=O)CNC(=O)[C@H](Cc2ccc3ccccc3c2)NC1=N`, the inhibition result in data set [3] is “inactive”. Further, the EC50 in data set [4] was 4.4 nM; in data set [5], 6.3 nM. The outcome in data set [6] was inactive.

In the case of `NC(N)=NCCC[C@@H]1NC(=O)[C@H](CCCN=C(N)N)NC(=O)[C@@H](Cc2ccc(O)cc2)NC(=O)CN=C(N)[C@@H](Cc2ccc3ccccc3c2)NC1=O`, the half-inhibitory concentration (IC50) in data set [1] stood at 4.9 nM. Further, in data set [2], the Activity entry is given as “Non-toxic”.

Turning to `N=C(N)NCCC[C@@H]1NC(=N)[C@@H](Cc2ccc(O)cc2)NC(=O)CNC(=O)[C@H](Cc2ccc3ccccc3c2)NC(=O)[C@H](CCCNC(=N)N)NC1=O`, the inhibition result in data set [3] is “inactive”. In addition, the EC50 is 300 nM in data set [4] and 258 nM in data set [5]. The outcome in data set [6] was inactive.

Turning to `N=C(N)NCCC[C@@H]1NC(=O)[C@@H](Cc2ccc(O)cc2)NC(=O)CNC(=O)[C@H](Cc2ccc3ccccc3c2)NC(=O)[C@H](CCCNC(=N)N)NC1=N`, the inhibition entry in data set [3] was “inactive”. Moreover, the EC50 in data set [4] was determined as 1.9 nM; in data set [5], 1.2 nM. In data set [6], the result was inactive.

For `N=C(N)NCCC[C@@H]1NC(=O)[C@H](CCCNC(=N)N)NC(=O)[C@@H](Cc2ccc(O)cc2)NC(=N)CNC(=O)[C@H](Cc2ccc3ccccc3c2)NC1=O`, in data set [3], the inhibition result is “inactive”. Besides, the concentration for a half-maximal effect (EC50) worked out at 1.3 nM in data set [4] and 0.61 nM in data set [5]. The result in data set [6] was inactive.

In data set [1], `NC(N)=NCCC[C@@H]1NC(=O)[C@H](CCCN=C(N)N)NC(=O)[C@@H](Cc2ccc(O)cc2)N=C(N)CNC(=O)[C@H](Cc2ccc3ccccc3c2)NC1=O` displayed an IC50 of 9.4 nM. Besides, the Activity result in data set [2] is listed as “Non-toxic”.

Regarding `N=C(N)NCCC[C@@H]1NC(=O)[C@H](CCCNC(=N)N)NC(=O)[C@@H](Cc2ccc(O)cc2)NC(=O)CNC(=N)[C@@H](Cc2ccc3ccccc3c2)NC1=O`, in data set [3], the inhibition entry was “inactive”. In addition, the EC50 in data set [4] stood at 2.2 nM; in data set [5], 2 nM. The result in data set [6] was inactive.

With `CN1C(=O)[C@@H](Cc2ccc(O)cc2)NC(=O)CNC(=O)[C@H](Cc2ccc3ccccc3c2)NC(=O)[C@H](CCCNC(=N)N)NC(=O)[C@H]1CCCNC(=N)N`, the EC50 in data set [4] and in data set [5] was 7.6 nM throughout. For the same compound, the outcome in data set [6] was inactive.

For orientation: IC50 means the concentration that inhibits the measured activity by half. The low end stands for greater potency, the high end for weaker potency. The EC50 is the concentration at which the effect is half-maximal.
